Data from patent publication US7053041B1, “Methods and compositions useful for inhibition of αvβ5mediated angiogenesis” (The Scripps Research Institute, priority 1996, dated 2006).

How the values were obtained:
Type in all cases: in vivo
[1] = system: TNF-α mediated angiogenesis; experiment: chick CAM assay, TNF-α-induced angiogenesis; conditions: TNF-α 1.0 μg/ml; antibodies 75 μg per embryo, calphostin C 100 nM
Description: (§1) The above growth factors (cytokines), including bFGF and VEGF, were separately applied at a concentration of 1.0 μg/ml to the 10 day old CAM model as previously described. PMA was used at a concentration of 20 ng/ml.
(§2) After 24 hours after growth factor treatment, the antibodies, LM609 and P1F6, or the protein kinase C (PKC) inhibitor, calphostin C, were separately provided to the CAM model, either by a single intravascular dose as described above or by topical administration as described below in the next example. For intravascular injections over the next 3 day consecutive period, the antibodies were used at a concentration of 75 μg per embryo and the calphostin C was at a dosage of 100 nM.
(§3) On day 13, filter discs and associated CAM tissue were dissected and analyzed for angiogenesis with a stereo microscope. Angiogenesis was scored in a double blind manner by analyzing the number and extent of branching of the blood vessels within the area of the discs. The scores ranged from low (1) to high (4). The angiogenesis index was determined by subtracting a background score of 1 from all data. Experiments were repeated 2–4 times with 5–6 embryos per condition.

[2] = system: angiogenesis induced by PMA; experiment: chick CAM assay, PMA-induced angiogenesis; conditions: PMA 20 ng/ml; antibodies 75 μg per embryo, calphostin C 100 nM
Description: as §1, §2, §3

[3] = system: angiogenesis induced by TGF-α; experiment: chick CAM assay, TGF-α-induced angiogenesis; conditions: TGF-α 1.0 μg/ml; antibodies 75 μg per embryo, calphostin C 100 nM
Description: as §1, §2, §3

[4] = system: bFGF-induced angiogenesis; experiment: chick CAM assay, bFGF-induced angiogenesis, intravenous inhibitors
Description: (§4) Ten day old chick embryos were obtained from McIntyre Poultry (Lakeside, Calif.) and incubated at 37C with 60% humidity. A small hole was made through the shell at the end of the egg directly over the air sac with the use of a small crafts drill (Dremel, Division of Emerson Electric Co., Racine, Wis.). A second hole was drilled on the broad side of the egg in a region devoid of embryonic blood vessels determined previously by candling the egg. […] A 1.0 centimeter (cm)×1.0 cm square window was cut through the shell over the dropped CAM with the use of a small model grinding wheel (Dremel). The small window allowed direct access to the underlying CAM.
(§5) Angiogenesis was induced by placing a 5 millimeter (mm)×5 mm Whatman filter disk (Whatman Filter paper No. 1) saturated with Hanks Balanced Salt Solution (HBSS, GIBCO, Grand Island, N.Y.) or HBSS containing preselected cytokines at a preselected concentration, i.e. one to test the effect on angiogenesis, on the CAM of a 10 day chick embryo in a region devoid of blood vessels and the windows were later sealed with tape. Angiogenesis was monitored by photomicroscopy after 72 hours. CAMs were snap frozen then 6 μm cryostat sections were fixed with acetone and stained by immunofluorescence as described in Example 2B and 2C with 10 μg/ml of selected anti-integrin antibodies, including those directed against αvβ5 as described in Example 1.
(§6) Angiogenesis was first induced on 10 day old chick embryos by application of growth factor-saturated filter disks. Specifically, in the first assays, angiogenesis was induced by exposure to either bFGF or VEGF, each at a concentration of 150 ng/ml.
(§7) For application of growth factors, during the candling procedures, prominent blood vessels were selected and marks were made on the egg shell to indicate their positions. The holes were drilled in the shell, the CAMs were dropped and growth factor-saturated filter papers were then separately placed on the CAMs as described above. The windows were sealed with sterile tape and the embryos were replaced in the incubator.
(§8) Twenty four hours later, a second small window was carefully cut on the lateral side of the egg shell directly over prominent blood vessels selected previously. The outer egg shell was carefully removed leaving the embryonic membranes intact. The shell membrane was made transparent with a small drop of mineral oil (Perkin-Elmer Corp, Norwalk, Conn.) which allowed the blood vessels to be visualized easily. Then, phosphate buffered saline (PBS), 75 μg of purified sterile anti-integrin antibodies or 75 μg of synthetic peptides (cyclic peptide RGDfV, SEQ ID NO 4 and control cyclic peptide RADfV, SEQ ID NO 5) in PBS were injected into blood vessels apparent on the growth factor-induced CAMs. The windows were sealed with tape and the embryos were allowed to incubate until 72 hours.
The filter discs and representative surrounding CAM tissues were photographed in a stereomicroscope (FIGS. 3A–3F and FIGS. 5A–5F) and the mean angiogenic index +/− the standard error was determined for 12 CAMs per condition (FIGS. 4A–4B and FIGS. 6A–6B). Angiogenesis was scored for each embryo in a double blind manner by analyzing the number and extent of branching of blood vessels within the area of each disc. The scores ranged from 1 (low) to 4 (high) and the angiogenesis index was determined by subtracting a background of 1 from all data. […]

[5] = system: VEGF-induced angiogenesis; experiment: chick CAM assay, VEGF-induced angiogenesis, intravenous inhibitors
Description: as §4, §5, §6, §7, §8
The filter discs and representative surrounding CAM tissues were photographed in a stereomicroscope (FIGS. 3A–3F and FIGS. 5A–5F) and the mean angiogenic index +/− the standard error was determined for 12 CAMs per condition (FIGS. 4A–4B and FIGS. 6A–6B). Angiogenesis was scored for each embryo in a double blind manner by analyzing the number and extent of branching of blood vessels within the area of each disc. The scores ranged from 1 (low) to 4 (high) and the angiogenesis index was determined by subtracting a background of 1 from all data.
In a further assay performed in the CAM model having VEGF-induced angiogenesis, 2 μg of peptides 85189 (SEQ ID NO 9) and the inert salt counterpart 121974 were separately intravenously injected as previously described. The effect of the peptides was assessed in comparison to that of control peptide 69601 (SEQ ID NO 5) and to untreated (labeled as NT) preparations.
The effect of the peptides of VEGF-induced angiogenesis is measured through a determination of the number of blood vessel branch points. […]

[6] = system: retinal vasculogenesis; experiment: newborn mouse model of retinal angiogenesis
Description: For the model, newborn mice were injected subcutaneously twice daily for four days starting from day 0 with the cyclic peptide RGDfV (SEQ ID NO 4) (also referred to as peptide 203) or the control peptide RADfV (SEQ ID NO 5). On postnatal day five, globes were removed and fixed in 4.0% paraformaldehyde (PFA) at room temperature.
To quantitate mouse retinal angiogenesis, the distance from the optic nerve head to the most distal point of a single vessel selected in each of six equal sectors around a twelve hour clock was measured. The mean distance was calculated and averaged with similar data obtained from an entire litter. To measure the total volume of retinal blood vessels, the entire specimen was scanned in 2.0 μm optical sections and stored digitally. The “seed” function in Bio-Rad's Lasersharp software was then used to threshold and count cubic pixels in each section. A macro was written to sum the volume of all sections and determine the value for all vascular structures.

| Substance | effect on CAM angiogenesis in response to TNF-α (angiogenesis index) [1] | effect on CAM angiogenesis induced by PMA (angiogenesis index) [2] | effect on CAM angiogenesis induced by TGF-α (angiogenesis index) [3] | effect on CAM angiogenesis in response to bFGF (angiogenesis index) ([4]; bFGF 1.0 μg/ml, antibodies 75 μg per embryo, calphostin C 100 nM) | effect on CAM angiogenesis induced by VEGF (angiogenesis index) ([5]; VEGF 1.0 μg/ml, antibodies 75 μg per embryo, calphostin C 100 nM) | volume of retinal blood vessels compared with untreated newborn mice ([6]; five-day old treated animals) | inhibition of retinal vasculogenesis compared to untreated counterparts ([6]; newborn mice, s.c. twice daily for four days) [%] | mean volume of retinal vessels ([6]; postnatal day five) | inhibition of retinal vasculogenesis relative to control peptide (vessel growth in two dimensions) ([6]; s.c. twice daily for four days from day 0, postnatal day five, N=9) [%] | reduction in retinal vascular volume compared to controls ([6]; three dimensional analysis, postnatal day five) [%] | difference in vessel growth between untreated newborn mice and treated five-day old mice ([6]; two dimensions) | inhibition of bFGF-induced CAM angiogenesis ([4]; bFGF 150 ng/ml, 75 μg antibody or peptide intravenously, 72 hours) | inhibition of VEGF-induced CAM angiogenesis ([5]; VEGF 150 ng/ml, 75 μg antibody or peptide intravenously, 72 hours) |
| --- | --- | --- | --- | --- | --- | --- | --- | --- | --- | --- | --- | --- | --- |
| calphostin C [reference compound] | minimal effects | blocked angiogenesis | blocked angiogenesis | minimal effects | blocked angiogenesis | – | – | – | – | – | – | – | – |
| cyclo(Arg-Gly-Asp-D-Phe-Val) [compound 66203] | – | – | – | – | – | indistinguishable | ~100 | 3.6×10^6 μm^3 | 44 | 78 | No statistical difference | abolished angiogenesis | abolished angiogenesis |
